Test results: patent publication US11498899B2, “Nitrone herbicides” (FMC Corporation, priority 2016, dated 2022)

Tests used:
[1] = system: barnyardgrass (Echinochloa crus-galli); test: Test A preemergence, visual injury rating 0-100 (0 no effect, 100 complete control); type: in vivo; settings: for Barnyardgrass plant response rating (0 to 100 scale): 125 g ai/ha; for Barnyardgrass plant response rating: 500 g ai/ha, 0 to 100 scale
[2] = system: foxtail, green (green foxtail, Setaria viridis); test: Test A preemergence, visual injury rating 0-100; type: in vivo; settings: for Foxtail, Green plant response rating (0 to 100 scale): 125 g ai/ha; for Foxtail, Green plant response rating: 500 g ai/ha, 0 to 100 scale
kochia (Kochia scoparia) [3] = test: Test A preemergence, visual injury rating 0-100; type: in vivo; settings: for Kochia plant response rating (0 to 100 scale): 125 g ai/ha; for Kochia plant response rating: 500 g ai/ha, 0 to 100 scale
[4] = system: pigweed (Amaranthus retroflexus); test: Test A preemergence, visual injury rating 0-100; type: in vivo; settings: for Pigweed plant response rating (0 to 100 scale): 125 g ai/ha; for Pigweed plant response rating: 500 g ai/ha, 0 to 100 scale
[5] = system: ragweed (common ragweed, Ambrosia elatior); test: Test A preemergence, visual injury rating 0-100; type: in vivo; settings: for Ragweed plant response rating (0 to 100 scale): 125 g ai/ha; for Ragweed plant response rating: 500 g ai/ha, 0 to 100 scale
[6] = system: ryegrass, Italian (Italian ryegrass, Lolium multiflorum); test: Test A preemergence, visual injury rating 0-100; type: in vivo; settings: for Ryegrass, Italian plant response rating (0 to 100 scale): 125 g ai/ha; for Ryegrass, Italian plant response rating: 500 g ai/ha, 0 to 100 scale
[7] = system: barnyardgrass (Echinochloa crus-galli); test: Test A postemergence, visual injury rating 0-100; type: in vivo; settings: 0 to 100 scale
[8] = system: blackgrass (Alopecurus myosuroides); test: Test A postemergence, visual injury rating 0-100; type: in vivo; settings: 0 to 100 scale
corn (Zea mays) = test: Test A postemergence, visual injury rating 0-100; type: in vivo; settings: 0 to 100 scale
[9] = system: foxtail, green (green foxtail, Setaria viridis); test: Test A postemergence, visual injury rating 0-100; type: in vivo; settings: 0 to 100 scale
[10] = system: galium (catchweed bedstraw, Galium aparine); test: Test A postemergence, visual injury rating 0-100; type: in vivo; settings: 0 to 100 scale
kochia (Kochia scoparia) [11] = test: Test A postemergence, visual injury rating 0-100; type: in vivo; settings: 0 to 100 scale
[12] = system: pigweed (Amaranthus retroflexus); test: Test A postemergence, visual injury rating 0-100; type: in vivo; settings: 0 to 100 scale
[13] = system: ragweed (common ragweed, Ambrosia elatior); test: Test A postemergence, visual injury rating 0-100; type: in vivo; settings: 0 to 100 scale
[14] = system: ryegrass, Italian (Italian ryegrass, Lolium multiflorum); test: Test A postemergence, visual injury rating 0-100; type: in vivo; settings: 0 to 100 scale
[15] = system: wheat (Triticum aestivum); test: Test A postemergence, visual injury rating 0-100; type: in vivo; settings: 0 to 100 scale
[16] = system: ducksalad (Heteranthera limosa); test: Test B flooded paddy test, visual rating 0-100; settings: Flood, 250 g ai/ha, applied to paddy water, rated after 13 to 15 days
[17] = system: barnyardgrass (Echinochloa crus-galli); test: Test B flooded paddy test, visual rating 0-100; settings: Flood, 250 g ai/ha, applied to paddy water, rated after 13 to 15 days
rice (Oryza sativa) = test: Test B flooded paddy test, visual rating 0-100 (0 no effect, 100 complete control); settings: Flood, 250 g ai/ha, applied to paddy water, rated after 13 to 15 days

Row | SMILES | Barnyardgrass plant response rating (0 to 100 scale) [1] | Barnyardgrass plant response rating [1] | Foxtail, Green plant response rating (0 to 100 scale) [2] | Foxtail, Green plant response rating [2] | Kochia plant response rating (0 to 100 scale) (kochia (Kochia scoparia) [3]) | Kochia plant response rating (kochia (Kochia scoparia) [3]) | Pigweed plant response rating (0 to 100 scale) [4] | Pigweed plant response rating [4] | Ragweed plant response rating (0 to 100 scale) [5] | Ragweed plant response rating [5] | Ryegrass, Italian plant response rating (0 to 100 scale) [6] | Ryegrass, Italian plant response rating [6] | Barnyardgrass plant response rating ([7]; 125 g ai/ha) | Barnyardgrass plant response rating ([7]; 500 g ai/ha) | Blackgrass plant response rating ([8]; 125 g ai/ha) | Blackgrass plant response rating ([8]; 500 g ai/ha) | Corn plant response rating (corn (Zea mays); 125 g ai/ha) | Corn plant response rating (corn (Zea mays); 500 g ai/ha) | Foxtail, Green plant response rating ([9]; 125 g ai/ha) | Foxtail, Green plant response rating ([9]; 500 g ai/ha) | other results
1 | CC1=[N+]([O-])C(C(=O)Nc2cccc(F)c2F)C(c2ccccc2)C1 (racemic) [Compound 16] | 100 | 100 | 100 | 100 | 0 | 30 | 0 | 70 | 0 | 20 | 0 | 0 | 80 | 90 | 0 | 0 | 0 | 0 | 10 | 80 | Galium plant response rating ([10]; 125 g ai/ha): 0; Galium plant response rating ([10]; 500 g ai/ha): 30; Kochia plant response rating (kochia (Kochia scoparia) [11]; 125 g ai/ha): 0; Kochia plant response rating (kochia (Kochia scoparia) [11]; 500 g ai/ha): 20; Pigweed plant response rating ([12]; 125 g ai/ha): 0; Pigweed plant response rating ([12]; 500 g ai/ha): 20; Ragweed plant response rating ([13]; 125 g ai/ha): 0; Ragweed plant response rating ([13]; 500 g ai/ha): 20; Ryegrass, Italian plant response rating ([14]; 125 g ai/ha): 0; Ryegrass, Italian plant response rating ([14]; 500 g ai/ha): 0; Wheat plant response rating ([15]; 125 g ai/ha): 0; Wheat plant response rating ([15]; 500 g ai/ha): 0; Ducksalad plant response rating (0 to 100 scale) [16]: 100; Barnyardgrass plant response rating (0 to 100 scale) [17]: 85; Rice plant response rating (0 to 100 scale) (rice (Oryza sativa)): 0
2 | CC1=[N+]([O-])C(C(=O)Nc2ccccc2)C(c2ccc(F)c(F)c2)C1 (racemic) [Compound 17] | 0 | 20 | 0 | 50 | 0 | 0 | 0 | 0 | 0 | 0 | 0 | 0 | 0 | 0 | 0 | 0 | 0 | 20 | 20 | 20 | Galium plant response rating ([10]; 125 g ai/ha): 0; Galium plant response rating ([10]; 500 g ai/ha): 0; Kochia plant response rating (kochia (Kochia scoparia) [11]; 125 g ai/ha): 0; Kochia plant response rating (kochia (Kochia scoparia) [11]; 500 g ai/ha): 0; Pigweed plant response rating ([12]; 125 g ai/ha): 0; Pigweed plant response rating ([12]; 500 g ai/ha): 0; Ragweed plant response rating ([13]; 125 g ai/ha): 0; Ragweed plant response rating ([13]; 500 g ai/ha): 0; Ryegrass, Italian plant response rating ([14]; 125 g ai/ha): 0; Ryegrass, Italian plant response rating ([14]; 500 g ai/ha): 0; Wheat plant response rating ([15]; 125 g ai/ha): 0; Wheat plant response rating ([15]; 500 g ai/ha): 0; Ducksalad plant response rating (0 to 100 scale) [16]: 40; Barnyardgrass plant response rating (0 to 100 scale) [17]: 0; Rice plant response rating (0 to 100 scale) (rice (Oryza sativa)): 0
3 | CC1=[N+]([O-])C(C(=O)Nc2cccc(F)c2F)C(c2cccc(Br)c2)C1 (racemic) [Compound 19] | 70 | 90 | 50 | 90 | 0 | 60 | 20 | 60 | 20 | 50 | 0 | 40 | 10 | 90 | 20 | 60 | 30 | 80 | 30 | 60 | Galium plant response rating ([10]; 125 g ai/ha): 0; Galium plant response rating ([10]; 500 g ai/ha): 30; Kochia plant response rating (kochia (Kochia scoparia) [11]; 125 g ai/ha): 0; Kochia plant response rating (kochia (Kochia scoparia) [11]; 500 g ai/ha): 30; Pigweed plant response rating ([12]; 125 g ai/ha): 0; Pigweed plant response rating ([12]; 500 g ai/ha): 20; Ragweed plant response rating ([13]; 125 g ai/ha): 0; Ragweed plant response rating ([13]; 500 g ai/ha): 20; Ryegrass, Italian plant response rating ([14]; 125 g ai/ha): 0; Ryegrass, Italian plant response rating ([14]; 500 g ai/ha): 40; Wheat plant response rating ([15]; 125 g ai/ha): 0; Wheat plant response rating ([15]; 500 g ai/ha): 70; Ducksalad plant response rating (0 to 100 scale) [16]: 95; Barnyardgrass plant response rating (0 to 100 scale) [17]: 85; Rice plant response rating (0 to 100 scale) (rice (Oryza sativa)): 15
4 | CC1=[N+]([O-])C(C(=O)Nc2cccc(F)c2F)C(c2ccc(Br)cc2)C1 (racemic) [Compound 20] | 60 | 90 | 60 | 90 | 0 | 50 | 60 | 80 | 20 | 60 | 0 | 20 | 10 | 50 | 0 | 30 | 0 | 0 | 0 | 60 | Galium plant response rating ([10]; 125 g ai/ha): 30; Galium plant response rating ([10]; 500 g ai/ha): 40; Kochia plant response rating (kochia (Kochia scoparia) [11]; 125 g ai/ha): 0; Kochia plant response rating (kochia (Kochia scoparia) [11]; 500 g ai/ha): 30; Pigweed plant response rating ([12]; 125 g ai/ha): 0; Pigweed plant response rating ([12]; 500 g ai/ha): 40; Ragweed plant response rating ([13]; 125 g ai/ha): 0; Ragweed plant response rating ([13]; 500 g ai/ha): 30; Ryegrass, Italian plant response rating ([14]; 125 g ai/ha): 0; Ryegrass, Italian plant response rating ([14]; 500 g ai/ha): 30; Wheat plant response rating ([15]; 125 g ai/ha): 0; Wheat plant response rating ([15]; 500 g ai/ha): 30; Ducksalad plant response rating (0 to 100 scale) [16]: 100; Barnyardgrass plant response rating (0 to 100 scale) [17]: 95; Rice plant response rating (0 to 100 scale) (rice (Oryza sativa)): 0
